The source of these data is patent publication US20230069722A1, “TUBULYSINS AND PROTEIN-TUBULYSIN CONJUGATES” (priority 2020, published 2023).

What all share (design): species or system human
In one assay the test system is HCT15 cells. Kind of assay: MDR cell based killing assay, HCT15 cells with or without Verapamil (CellTiter-Glo). The conditions noted are these: IC50 without Verapamil divided by IC50 with Verapamil. Put shortly:
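HCT15 colorectal cells (1000/well) in RPMI/10% FBS, with or without 5 ug/mL Verapamil, exposed to 1:3 serial dilutions (100 nM–15 pM) for 5 days. Viability by CellTiter-Glo ATP luminescence; IC50 (M) from four-parameter fit; ratio is IC50 without Verapamil divided by IC50 with Verapamil.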
A general note: ATP-based viability assays read luminescence as a measure of living cells.

Assay [1] concerns C4-2 cells. Kind of assay: Cell-based killing assay of payloads, C4-2 cells (CellTiter-Glo). The protocol: (§1) To test the ability of the disclosed tubulysin payloads or prodrug payloads to kill human cell lines, an in vitro cytotoxicity assay can be performed. In vitro cytotoxicity of the disclosed payloads, as well as reference compounds, are evaluated using the CellTiter-Glo Assay Kit (Promega, Cat # G7573), in which the quantity of ATP present is used to determine the number of viable cells in culture. For the assay, C4-2, HEK293, or T47D cells are seeded at 4000 cells/well on Nunclon white 96-well plates in complete growth medium (DME high glucose:Ham's F12 at 4:1, 10% FBS, 100 units/ml Penicillin, 100 ug/ml streptomycin, 53 ug/ml glutatmine, 10 ug/ml insulin, 220 ng/ml biotin, 12.5 pg/ml T3, 12.5 ug/ml Adenine, 4 ug/ml transferrin for C42 cells; DME high glucose, 10% FBS, 100 units/ml Penicillin, 100 ug/ml streptomycin, 53 ug/ml glutatmine for HEK293; RPMI, 10% FBS, 100 units/ml Penicillin, 100 ug/ml streptomycin, 53 ug/ml glutatmine, 10 ug/ml insulin, 10 mM HEPEs, 200 nM Sodium Pyruvate for T47D cells) and grown overnight at 37° C. in 5% CO2. […] Relative luminescence units (RLU) can be determined on a Victor plate reader (PerkinElmer). The IC50 values are determined from a four-parameter logistic equation over a 10-point response curve (GraphPad Prism). […]

Assay [2] deals with C4-2 cells. Kind of assay: ADC cell based killing assay, C4-2 cells (anti-STEAP2 ADCs). The protocol: as §1
[3] abbreviates: at the maximum concentration tested.

In general, IC50 refers to the point on the concentration scale where inhibition reaches its midpoint. A low value points to greater potency.

Where a SMILES comes first, the peptide text is derived from it. [ ]: non-standard residue; d: D form. The star is where a group is joined. Dolaproine = CO[C@@H]([C@@H]1CCCN1)[C@@H](C)C(=O)O; Dil = CC[C@H](C)[C@H](NC)[C@@H](CC(=O)O)OC; X1 = C[C@@H](N*)[C@@H](O)c1ccccc1; NMeV = CN[C@H](C(=O)O)C(C)C

As for `CC[C@H](C)[C@@H]([C@@H](CC(=O)N1CCC[C@H]1[C@H](OC)[C@@H](C)C(=O)N[C@H](C)[C@@H](O)c1ccccc1)OC)N(C)C(=O)[C@@H](NC(=O)[C@@H](NC)C(C)C)C(C)C` [MMAE, Monomethyl auristatin E] (H-[NMeV]V[Dil][Dolaproine]-X1), the “HCT-15 IC50/HCT-15+Verapamil IC50 ratio” value with HCT15 cells turned out to be 23.7. Besides, the 50% inhibitory concentration (IC50) was determined as 0.283 nM with C4-2 cells [1] (5-day incubation); 0.22 nM in the assay with C4-2 cells [2] (ADCs and reference payload). Moreover, the “maximum % cell killing, C4-2 cells” value in the assay with C4-2 cells [1] (setting [3]) is 93.7%. In addition, the “maximum percent killing, C4-2 cells” value in the assay on C4-2 cells [2] (setting [3]) came out at 99%.
